Source: patent publication US10183952B2, “Thienopyrroles as histone demethylase inhibitors” (ISTITUTO EUROPEO DI ONCOLOGIA S.R.L., priority 2014, dated 2019)
Where a name gives a salt, the structure may show the parent alone.

Legend:
[1] = tested on: human leukemia MV4-11 cells; assay: Cell growth, CellTiter-Fluor Cell Viability Assay, MV4-11; assay type: cell-based; details: 48 h incubation, read-out: IC50 against human leukemia MV4-11 cells
Description: (§1) The CellTiter-Fluor™ Cell Viability Assay measures the conserved and constitutive protease activity within live cells and therefore acts as a marker for cell viability.
(§2) CellTiter-Flor® (Promega) is as a nonlytic, single-reagent-addition fluorescence assay that measures the relative number of living cells in a culture population after experimental manipulation. The CellTiter-Fluor™ Cell Viability Assay measures the conserved and constitutive protease activity within live cells and therefore acts as a marker for cell viability.
(§3) Human leukemia MV4-11 cells, (obtained from the Deutsche Sammlung von Mikroorganismen und Zellkulturen, ACC 102) or NB4 cells, (obtained from the Deutsche Sammlung von Mikroorganismen und Zellkulturen) in exponential growth, were incubated for 48 h with different concentrations of the inhibitors. After 48 h a volume of CellTiter-Fluor® Reagent equal to one fifth of volume of cell culture medium was added. The content was mixed and incubates for at least 90 min at 37° C. degree to obtain a stable signal. The fluorescence was recorded using an excitation wavelength of 360 nm and an emission at 535 nm. The IC50 was calculated using GraphPad Software.

human leukemia NB4 cells = assay: Cell growth, CellTiter-Fluor Cell Viability Assay, NB4; assay type: cell-based; details: NB-4, 48 h incubation, read-out: IC50 against human leukemia NB4 cells
Description: as §1, §2, §3

[2] = molecular target: human recombinant KDM1A/CoREST protein (Homo sapiens, UniProt O60341); assay: Assay of enzyme inhibition of KDM1A (LSD1), TR-FRET
Description: The intensity of the light emission is proportional to the level of biotinylated reaction product. The complex of human recombinant KDM1A/CoREST protein was produced in E. coli as separate proteins and co-purified as previously described.
Demethylase reaction was started by the addition of 50 nM histone H3K4 monomethylated.
The resulting mixture was incubated in the dark for 1 h at RT.

Structure (SMILES)	IC50 [1]	IC50 (human leukemia NB4 cells)	IC50 [2]
CN1CCC(Oc2ccc(OCc3ccccc3NC(=O)c3cc4sccc4n3C)cc2)CC1 [Example 13, 4-methyl-N-[2-[[4-[(1-methyl-4-piperidyl)oxy]phenoxy]methyl]phenyl]thieno[3,2-b]pyrrole-5-carboxamide]	< 10 µM	< 20 µM	< 10 µM
Cn1c(C(=O)Nc2ccccc2COc2ccc(O[C@H]3CC[C@H](N)CC3)cc2)cc2sccc21 [Example 14, N-[2-[[4-(trans-4-aminocyclohexoxy)phenoxy]methyl]phenyl]-4-methyl-thieno[3,2-b]pyrrole-5-carboxamide]	< 10 µM	< 20 µM	< 10 µM
CN1CCC(Oc2ccc(OCc3cccc(NC(=O)c4cc5sccc5n4C)c3)cc2)CC1 [Example 15, 4-methyl-N-[3-[[4-[(1-methyl-4-piperidyl)oxy]phenoxy]methyl]phenyl]thieno[3,2-b]pyrrole-5-carboxamide]	< 10 µM	< 20 µM	< 10 µM
Cn1c(C(=O)Nc2ccccc2COc2ccc(OC3CCNC3)cc2)cc2sccc21 (stereo not drawn) [Example 16, 4-methyl-N-[2-[(4-pyrrolidin-3-yloxyphenoxy)methyl]phenyl]thieno[3,2-b]pyrrole-5-carboxamide]	< 10 µM	< 20 µM	< 10 µM
CN1CCC(Oc2cccc(OCc3ccccc3NC(=O)c3cc4sccc4n3C)c2)CC1 [Example 17, 4-methyl-N-[2-[[3-[(1-methyl-4-piperidyl)oxy]phenoxy]methyl]phenyl]thieno[3,2-b]pyrrole-5-carboxamide]	< 10 µM	< 20 µM	< 10 µM
Cn1c(C(=O)Nc2ccccc2COc2cccc(OC3CCNCC3)c2)cc2sccc21 [Example 18, 4-methyl-N-[2-[[3-(4-piperidyloxy)phenoxy]methyl]phenyl]thieno[3,2-b]pyrrole-5-carboxamide]	< 10 µM	< 20 µM	< 10 µM
CN1CCCC(COc2cccc(NC(=O)c3cc4sccc4n3C)c2)C1 (stereo not drawn) [Example 19, 4-methyl-N-[3-[(1-methyl-3-piperidyl)methoxy]phenyl]thieno[3,2-b]pyrrole-5-carboxamide]	< 10 µM	< 20 µM	< 10 µM
CN1CCN(Cc2ccc(OCc3ccccc3NC(=O)c3cc4sccc4n3C)cc2)CC1 [Example 20, 4-methyl-N-[2-[[4-[(4-methylpiperazin-1-yl)methyl]phenoxy]methyl]phenyl]thieno[3,2-b]pyrrole-5-carboxamide]	< 10 µM	< 20 µM	< 10 µM
Cn1c(C(=O)Nc2cccc(OCc3ccncc3)c2)cc2sccc21 [Example 21, 4-methyl-N-[3-(4-pyridylmethoxy)phenyl]thieno[3,2-b]pyrrole-5-carboxamide]	< 10 µM	< 20 µM	< 10 µM
COCc1cccc(NC(=O)c2cc3sccc3n2C)c1COc1ccc(OC[C@H]2CCNC2)cc1 [Example 49, N-[3-(Methoxymethyl)-2-[[4-[[(3S)-pyrrolidin-3-yl]methoxy]phenoxy]methyl]phenyl]-4-methyl-thieno[3,2-b]pyrrole-5-carboxamide hydrochloride]	< 10 µM	< 20 µM	< 10 µM
CCOCc1cccc(NC(=O)c2cc3sccc3n2C)c1COc1ccc(OC2CCNCC2)cc1 [Example 50, N-[3-(Ethoxymethyl)-2-[[4-(4-piperidyloxy)phenoxy]methyl]phenyl]-4-methyl-thieno[3,2-b]pyrrole-5-carboxamide hydrochloride]	< 10 µM	< 20 µM	< 10 µM
CCOCc1cccc(NC(=O)c2cc3sccc3n2C)c1COc1ccc(OC[C@@H]2CCNC2)cc1 [Example 52, N-[3-(Ethoxymethyl)-2-[[4-[[(3R)-pyrrolidin-3-yl]methoxy]phenoxy]methyl]phenyl]-4-methyl-thieno[3,2-b]pyrrole-5-carboxamide hydrochloride]	< 10 µM	< 20 µM	< 10 µM

Continued, values first:

IC50 [1]	IC50 (human leukemia NB4 cells)	IC50 [2]	Structure (SMILES)
< 10 µM	< 20 µM	< 10 µM	CC(C)OCc1cccc(NC(=O)c2cc3sccc3n2C)c1COc1ccc(OC2CCNCC2)cc1 [Example 51, N-[3-(Isopropoxymethyl)-2-[[4-(4-piperidyloxy)phenoxy]methyl]phenyl]-4-methyl-thieno[3,2-b]pyrrole-5-carboxamide]
< 10 µM	< 20 µM	< 10 µM	CCn1c(C(=O)Nc2cccc(COC)c2COc2ccc(OC[C@@H]3CCNC3)cc2)cc2sccc21 [Example 53, 4-Ethyl-N-[3-(methoxymethyl)-2-[[4-[[(3R)-pyrrolidin-3-yl]methoxy]phenoxy]methyl]phenyl]thieno[3,2-b]pyrrole-5-carboxamide; trifluoroacetic acid]
< 10 µM	< 20 µM	< 10 µM	Cn1c(C(=O)Nc2cccc(CN3CCOCC3)c2COc2ccc(OC3CCNCC3)cc2)cc2sccc21 [Example 54, 4-Methyl-N-[3-(morpholinomethyl)-2-[[4-(4-piperidyloxy)phenoxy]methyl]phenyl]thieno[3,2-b]pyrrole-5-carboxamide dihydrochloride]
< 10 µM	< 20 µM	< 10 µM	Cc1ccc(COc2ccc(OCC3CCNC3)cc2)c(NC(=O)c2cc3sccc3n2C)c1 (stereo not drawn) [Example 55, 4-Methyl-N-[5-methyl-2-[[4-(pyrrolidin-3-ylmethoxy)phenoxy]methyl]phenyl]thieno[3,2-b]pyrrole-5-carboxamide]
< 10 µM	< 20 µM	< 10 µM	Cn1c(C(=O)Nc2ccccc2CCc2ccc(OC3CCNCC3)cc2)cc2sccc21 [Example 61, 4-Methyl-N-[2-[2-[4-(4-piperidyloxy)phenyl]ethyl]phenyl]thieno[3,2-b]pyrrole-5-carboxamide hydrochloride]
< 10 µM	< 20 µM	< 10 µM	Cn1c(C(=O)Nc2cccc(CCc3ccc(OC4CCNCC4)cc3)c2)cc2sccc21 [Example 62, 4-Methyl-N-[3-[2-[4-(4-piperidyloxy)phenyl]ethyl]phenyl]thieno[3,2-b]pyrrole-5-carboxamide hydrochloride]
< 10 µM	< 20 µM	< 10 µM	Cn1c(C(=O)Nc2ccccc2CNc2ccc(OC3CCNCC3)cc2)cc2sccc21 [Example 63, 4-Methyl-N-[2-[[4-(4-piperidyloxy)anilino]methyl]phenyl]thieno[3,2-b]pyrrole-5-carboxamide dihydrochloride]
